Some results are limits rather than exact numbers.

Sequence of Human factor D (P00746 26-253): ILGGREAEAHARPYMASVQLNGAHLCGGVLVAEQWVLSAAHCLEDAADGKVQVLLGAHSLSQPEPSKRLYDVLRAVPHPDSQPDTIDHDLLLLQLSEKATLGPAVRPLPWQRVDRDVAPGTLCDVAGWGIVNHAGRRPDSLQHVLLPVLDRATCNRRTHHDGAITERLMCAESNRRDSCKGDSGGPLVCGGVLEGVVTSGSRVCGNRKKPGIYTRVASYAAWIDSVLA

This assay addresses Human factor D (Homo sapiens (Human), UniProt P00746). Kind of assay: Human Factor D Assay. The class given is biochemical. As to conditions: Human factor D purified from human serum, 80 nM; substrate Z-L-Lys-SBzl with DTNB; assay of Example 8. On the procedure: The assay of Example 8 was used to determine the IC50's of the compounds. Other standard factor D inhibition assays are also available.
Example 8. Human Factor D Assay
Human factor D (purified from human serum, Complement Technology, Inc.) at 80 nM final concentration is incubated with test compound at various concentrations for 5 minutes at room temperature in 50 mM Tris, 1M NaCl, pH 7.5. A synthetic substrate Z-L-Lys-SBzl and DTNB (Ellman's reagent) are added to final concentrations of 100 µM each. The increase in color is recorded at OD405 nm in a microplate in kinetic mode over 30 minutes with 30 second time points in a […]. IC50 values are calculated by non-linear regression from the percentage of inhibition of complement factor D activity as a function of test compound concentration.
Take `CC(=O)c1cn(CC(=O)N2C[C@H](F)C[C@H]2C(=O)NCc2cccc(Cl)c2F)c2cc(OCC3CC3)ccc12` [Compound 1, (2S,4R)-1-(2-(3-acetyl-6-(cyclopropylmethoxy)-1H-indol-1-yl)acetyl)-N-(3-chloro-2-fluorobenzyl)-4-fluoropyrrolidine-2-carboxamide]: the IC50 (as a rule, the concentration that inhibits the measured activity by half) was less than 1 µM.

As to `CC(=O)c1cn(CC(=O)N2C[C@H](F)C[C@H]2C(=O)NCc2cccc(Cl)c2F)c2cc(OS(=O)(=O)C(F)(F)F)ccc12` [Compound 2, 3-acetyl-1-(2-((2S,4R)-2-(3-chloro-2-fluorobenzylcarbamoyl)-4-fluoropyrrolidin-1-yl)-2-oxoethyl)-1H-indol-6-yl trifluoromethanesulfonate], the IC50 is less than 1 µM.

For the molecule `CC(=O)c1cn(CC(=O)N2[C@@H]3C[C@@H]3C[C@H]2C(=O)NCc2cccc(Cl)c2F)c2cc(OCC3CC3)ccc12` [Compound 3, (1R,3S,5R)-2-(2-(3-acetyl-6-(cyclopropylmethoxy)-1H-indol-1-yl)acetyl)-N-(3-chloro-2-fluorobenzyl)-2-azabicyclo[3.1.0]hexane-3-carboxamide], the IC50 is less than 1 µM.

As to `CC(=O)c1cn(CC(=O)N2C[C@H](F)C[C@H]2C(=O)Nc2cccc(OC(F)(F)F)c2F)c2cc(OCC3CC3)ccc12` [Compound 4, (2S,4R)-1-(2-(3-acetyl-6-(cyclopropylmethoxy)-1H-indol-1-yl)acetyl)-4-fluoro-N-(2-fluoro-3-(trifluoromethoxy)phen-yl)pyrrolidine-2-carboxamide], the IC50 is less than 1 µM.

The molecule `CC(=O)c1cn(CC(=O)N2C[C@H](F)C[C@H]2C(=O)NCc2cccc(Cl)c2F)c2cc(OCCC3CC3)ccc12` [Compound 5, (2S,4R)-1-(2-(3-acetyl-6-(2-cyclopropylethoxy)-1H-indol-1-yl)acetyl)-N-(3-chloro-2-fluorobenzyl)-4-fluoropyrrolidine-2-carboxamide] displayed an IC50 of less than 1 µM.

For the molecule `CCOP(=O)(COc1ccc2c(C(C)=O)cn(CC(=O)N3C[C@H](F)C[C@H]3C(=O)NCc3cccc(Cl)c3F)c2c1)OCC` [Compound 7, diethyl (3-acetyl-1-(2-((2S,4R)-2-(3-chloro-2-fluorobenzylcarbamoyl)-4-fluoropyrrolidin-1-yl)-2-oxoethyl)-1H-indol-6-yloxy)methylphosphonate], the IC50 is less than 1 µM.

As to `CC(=O)c1cn(CC(=O)N2C[C@H](F)C[C@H]2C(=O)NCc2cccc(Cl)c2F)c2cc(OCP(=O)(O)O)ccc12` [Compound 8, (3-acetyl-1-(2-((2S,4R)-2-(3-chloro-2-fluorobenzylcarbamoyl)-4-fluoropyrrolidin-1-yl)-2-oxoethyl)-1H-indol-6-yloxy)methylphosphonic acid], the concentration for half-maximal inhibition (IC50) was less than 1 µM.

On to `CC(=O)c1cn(CC(=O)N2C[C@H](F)C[C@H]2C(=O)NCc2cccc(Cl)c2F)c2ccc(OS(=O)(=O)C(F)(F)F)cc12` [Compound 9, 3-acetyl-1-(2-((2S,4R)-2-(3-chloro-2-fluorobenzylcarbamoyl)-4-fluoropyrrolidin-1-yl)-2-oxoethyl)-1H-indol-5-yl trifluoromethanesulfonate], for which the IC50 was less than 1 µM.

On to `CCOP(=O)(COc1ccc2c(c1)c(C(C)=O)cn2CC(=O)N1C[C@H](F)C[C@H]1C(=O)NCc1cccc(Cl)c1F)OCC` [Compound 10, diethyl (3-acetyl-1-(2-((2S,4R)-2-(3-chloro-2-fluorobenzylcarbamoyl)-4-fluoropyrrolidin-1-yl)-2-oxoethyl)-1H-indol-5-yloxy)methylphosphonate], for which the IC50 is less than 1 µM.

`CC(=O)c1cn(CC(=O)N2C[C@H](F)C[C@H]2C(=O)NCc2cccc(Cl)c2F)c2ccc(OCP(=O)(O)O)cc12` [Compound 11, (3-acetyl-1-(2-((2S,4R)-2-(3-chloro-2-fluorobenzylcarbamoyl)-4-fluoropyrrolidin-1-yl)-2-oxoethyl)-1H-indol-5-yloxy)methylphosphonic acid] registered an IC50 of less than 1 µM.

In turn, `CC(=O)c1cn(CC(=O)N2C[C@H](F)C[C@H]2C(=O)NCc2cccc(Cl)c2F)c2cc(OCP(=O)(OCOC(=O)OC(C)C)OCOC(=O)OC(C)C)ccc12` [Compound 12, (((3-acetyl-1-(2-((2S,4R)-2-(3-chloro-2-fluorobenzylcarbamoyl)-4-fluoropyrrolidin-1-yl)-2-oxoethyl)-1H-indol-6-yloxy)methyl)phospho-ryl)bis(oxy)bis(methylene) isopropyl dicarbonate] returned an IC50 of less than 1 µM.

For `CC(=O)c1cn(CC(=O)N2C[C@H](F)C[C@H]2C(=O)NCc2cccc(Cl)c2F)c2cc(OCP(=O)(O)OCOC(=O)OC(C)C)ccc12` [Compound 13, (((3-acetyl-1-(2-((2S,4R)-2-(3-chloro-2-fluorobenzylcarbamoyl)-4-fluoropyrrolidin-1-yl)-2-oxoethyl)-1H-indol-6-yloxy)methyl)(hydro-xy)phosphoryloxy)meth-yl isopropyl carbonate], the IC50 was less than 1 µM.

As for `CCOP(=O)(CC)COc1ccc2c(C(C)=O)cn(CC(=O)N3C[C@H](F)C[C@H]3C(=O)NCc3cccc(Cl)c3F)c2c1` (stereo partly drawn) [Compound 14, ethyl (3-acetyl-1-(2-((2S,4R)-2-(3-chloro-2-fluorobenzylcarbamoyl)-4-fluoropyrrolidin-1-yl)-2-oxoethyl)-1H-indol-6-yloxy)methyl(eth-yl)phosphinate], the IC50 was less than 1 µM.

On to `CC(=O)c1cn(CC(=O)N2C[C@H](F)C[C@H]2C(=O)NCc2cccc(Cl)c2F)c2cc(OCS(=O)(=O)NC(C)(C)C)ccc12` [Compound 15, (2S,4R)-1-(2-(3-acetyl-6-(N-tert-butylsulfamoylmethoxy)-1H-indol-1-yl)acetyl)-N-(3-chloro-2-fluorobenzyl)-4-fluoropyrrolidine-2-carboxamide], for which the IC50 was less than 1 µM.

The molecule `CCP(=O)(O)COc1ccc2c(C(C)=O)cn(CC(=O)N3C[C@H](F)C[C@H]3C(=O)NCc3cccc(Cl)c3F)c2c1` [Compound 16, (3-acetyl-1-(2-((2S,4R)-2-(3-chloro-2-fluorobenzylcarbamoyl)-4-fluoropyrrolidin-1-yl)-2-oxoethyl)-1H-indol-6-yloxy)methyl(eth-yl)phosphinic acid] returned an IC50 of less than 1 µM.

Regarding `CC(=O)c1cn(CC(=O)N2C[C@H](F)C[C@H]2C(=O)NCc2cccc(Cl)c2F)c2cc(OCS(N)(=O)=O)ccc12` [Compound 17, (2S,4R)-1-(2-(3-acetyl-6-(sulfamoylmethoxy)-1H-indol-1-yl)acetyl)-N-(3-chloro-2-fluorobenzyl)-4-fluoropyrrolidine-2-carboxamide], the IC50 is less than 1 µM.

For the molecule `CCOP(=O)(COc1ccc2c(C(C)=O)cn(CC(=O)N3C[C@H](F)C[C@H]3C(=O)N[C@H](C)c3cccc(Cl)c3F)c2c1)OCC` [Compound 18, diethyl (3-acetyl-1-(2-((2S,4R)-2-((R)-1-(3-chloro-2-fluorophen-yl)ethylcarbamoyl)-4-fluoropyrrolidin-1-yl)-2-oxoethyl)-1H-indol-6-yloxy)methylphosphonate], the IC50 was less than 1 µM.

As for `CC(=O)c1cn(CC(=O)N2C[C@H](F)C[C@H]2C(=O)N[C@H](C)c2cccc(Cl)c2F)c2cc(OCP(=O)(O)O)ccc12` [Compound 19, (3-acetyl-1-(2-((2S,4R)-2-((R)-1-(3-chloro-2-fluorophenyl)ethyl-carbamoyl)-4-fluoropyrrolidin-1-yl)-2-oxoethyl)-1H-indol-6-yloxy)methylphosphonic acid], the IC50 was less than 1 µM.

Turning to `CCCCCCCCCCCCCCCCOCCCOP(=O)(O)COc1ccc2c(C(C)=O)cn(CC(=O)N3C[C@H](F)C[C@H]3C(=O)NCc3cccc(Cl)c3F)c2c1` [Compound 20, 3-(hexadecyloxy)propyl hydrogen (3-acetyl-1-(2-((2S,4R)-2-(3-chloro-2-fluorobenzylcarbamoyl)-4-fluoropyrrolidin-1-yl)-2-oxoethyl)-1H-indol-6-yloxy)methylphosphonate], the IC50 was less than 1 µM.

`CC(=O)c1cn(CC(=O)N2C[C@H](F)C[C@H]2C(=O)NCc2cccc(Cl)c2F)c2cc(OCP(=O)(OCOC(=O)C(C)(C)C)OCOC(=O)C(C)(C)C)ccc12` [Compound 21, (((3-acetyl-1-(2-((2S,4R)-2-(3-chloro-2-fluorobenzylcarbamoyl)-4-fluoropyrrolidin-1-yl)-2-oxoethyl)-1H-indol-6-yloxy)methyl)phosph-oryl)bis(oxy)bis(meth-ylene) bis(2,2-dimethylpropanoate)]: the IC50 was less than 1 µM.

Regarding `CC(=O)c1cn(CC(=O)N2C[C@H](F)C[C@H]2CNS(=O)(=O)c2cccc(Cl)c2F)c2cc(OCP(=O)(O)O)ccc12` [Compound 22, (3-acetyl-1-(2-((2S,4R)-2-((3-chloro-2-fluoro-phenylsulfonamido)meth-yl)-4-fluoropyrrolidin-1-yl)-2-oxoethyl)-1H-indol-6-yloxy)methylphosphonic acid], the IC50 was less than 1 µM.

Molecule `CCC(=O)OC(OP(=O)(COc1ccc2c(C(C)=O)cn(CC(=O)N3C[C@H](F)C[C@H]3C(=O)NCc3cccc(Cl)c3F)c2c1)OC(OC(=O)CC)C(C)C)C(C)C` (stereo partly drawn) [Compound 23, 1,1′-(((3-acetyl-1-(2-((2S,4R)-2-(3-chloro-2-fluorobenzylcarbamoyl)-4-fluoropyrrolidin-1-yl)-2-oxoethyl)-1H-indol-6-yloxy)methyl)phosph-oryl)bis(oxy)bis(2-methylpropane-1,1-diyl) dipropionate] registered an IC50 of less than 1 µM.

`CC(=O)c1cn(CC(=O)N2C[C@H](F)C[C@H]2C(=O)NCc2cccc(Cl)c2F)c2cc(OCP(=O)(N[C@@H](C)C(=O)OC(C)C)N[C@@H](C)C(=O)OC(C)C)ccc12` [Compound 24, (2S,2′S)-isopropyl 2,2′-(((3-acetyl-1-(2-((2S,4R)-2-(3-chloro-2-fluorobenzylcarbamoyl)-4-fluoropyrrolidin-1-yl)-2-oxoethyl)-1H-indol-6-yloxy)methyl)phosph-oryl)bis(azanediyl)di-propanoate] gave an IC50 of less than 1 µM.

Values taken from patent US9732104B2, “Ether compounds for treatment of complement mediated disorders” (Achillion Pharmaceuticals, Inc., priority 2014, dated 2017).
